Test results published in patent publication US6423317B1, “Method of killing protozoa” (S.S. Steiner, Inc., priority 2001, dated 2002).

Assays:
P. papillata = assay: Protozoicidal effect, time for 100% kill; type: cell-based, Polytomella papillata; conditions: observation time 24 hours
Description: (§1) […] protozoa had stopped moving. The observation time was 24 hours. In order to determine whether the protozoa had been killed rather than only temporarily inactivated, the organisms in hop solution were centrifuged, the supernatant removed, and the protozoa placed into fresh medium in which hop was not present. When there was no revival of the organisms, it was concluded that they were dead rather than only temporarily inactivated.

Chaos sp. [1] = assay: Co-action of hop resins with carbon dioxide; type: cell-based
Description: (§2) Different concentrations of the alpha and beta resins of hop were prepared in 10 ml. of medium, as identified in Table 1, and poured into plastic tissue culture flasks of 25 cm. growth area with screw caps, obtained from Falcon, Oxnard, Calif. Carbon dioxide was then bubbled through the medium in the bottles at a rapid rate for a period of 30 seconds. An average of ten organisms were added to each flask and examined directly under the stereomicroscope. The times that were taken for a 100% kill of the organisms, that is, when all of the organisms ceased any motion, were recorded in minutes and are tabulated in Tables 7 and 8.
The same tests but at greater resin concentrations were carried out on an amoeba strain, Chaos sp., and the results recorded in Table 8.

Euglena sp. = assay: Protozoicidal effect, time for 100% kill; type: cell-based; conditions: observation time 24 hours
Description: as §1

Amoeba proteus = assay: Protozoicidal effect, time for 100% kill; type: cell-based; conditions: 500 μg/ml, observation time 24 hours
Description: (§3) The protozoicidal effect of various hop compounds was determined by preparing different concentrations of hop solution in 10 ml. of medium. The solution was poured into 6×4 multiwell dishes—3424 Mark 2 (Coster, Cambridge, Mass.). An average of 10 microorganisms was added to each well and observed under the stereomicroscope. Results were expressed as the time in minutes for a 100% kill, which was presumed when all of the
(§4) protozoa had stopped moving. The observation time was 24 hours.
(§5) In order to determine whether the protozoa had been killed rather than only temporarily inactivated, the organisms in hop solution were centrifuged, the supernatant removed, and the protozoa placed into fresh medium in which hop was not present. When there was no revival of the organisms, it was concluded that they were dead rather than only temporarily inactivated.
(§6) Tests were conducted to determine the effectiveness of the alpha and beta resins against amoebae.

Chaos sp. [2] = assay: Protozoicidal effect, time for 100% kill; type: cell-based; conditions: for Time of death (100% kill): observation time 24 hours
Description: as §3, §4, §5, §6

P. caudatum [3] = assay: Co-action of hop resins with carbon dioxide, time for 100% kill; type: cell-based, Paramecium caudatum; conditions: carbon dioxide bubbled into the medium for 30 seconds before inoculation
Description: as §2

T. pyriformis = assay: Protozoicidal effect, time for 100% kill; type: cell-based, Tetrahymena pyriformis; conditions: observation time 24 hours
Description: as §1

P. caudatum [4] = assay: Protozoicidal effect, time for 100% kill; type: cell-based, Paramecium caudatum; conditions: for Time of death (100% kill): observation time 24 hours
Description: as §1

[5] = 0.2 μg/ml, listed as beta resin
[6] = 0.5 μg/ml, listed as beta resin

For `CC(C)=CCC1=C(O)C(C(=O)CC(C)C)=C(O)C(CC=C(C)C)(CC=C(C)C)C1=O` [Beta Resin, lupulone], the “Time of death (100% kill)” value (P. papillata; 0.05 μg/ml) was “not sensitive”, the “Time of death (100% kill)” value (P. papillata; 0.2 μg/ml) was 40 min and the “Time of death (100% kill)” value (P. papillata; [5]) was ≤ 40 min. For the same compound, the “Time of death (100% kill)” value (P. papillata; 0.5 μg/ml) was 5 min, the “Time of death (100% kill)” value (P. papillata; 1.0 μg/ml) was 3.5 min and the “Time of death (100% kill)” value (P. papillata; 2.0 μg/ml) was 2.0 min. For the same compound, the “Effectiveness in killing with prior carbon dioxide treatment” value (“Effectiveness in killing” below) (Chaos sp. [1]; resin 10 ug/ml, prior carbon dioxide treatment) was “both were effective”, the “Effectiveness in killing” value (Chaos sp. [1]; resin 50 ug/ml, carbon dioxide pretreatment) was “both were effective with carbon dioxide pretreatment” and the “Effectiveness in killing” value (Chaos sp. [1]; resin 100 ug/ml, carbon dioxide pretreatment) was “all were most effective with pretreatment”. For the same compound, the “Time of death (100% kill)” value (Euglena sp.; 0.05 μg/ml) was “not sensitive”, the “Time of death (100% kill)” value (Euglena sp.; 0.5 μg/ml) was 2.5 min and the “Time of death (100% kill)” value (Euglena sp.; 1.0 μg/ml) was 1.5 min. The “Time of death (100% kill)” value (Euglena sp.; 2.0 μg/ml) was 1.2 min, the “Time of death (100% kill)” value (Amoeba proteus) was 180 min and the “Time of death (100% kill)” value (Chaos sp. [2]; 10 μg/ml) was “neither the alpha nor beta resins were effective alone”. For the same compound, the “Time of death (100% kill)” value (Chaos sp. [2]; 50 μg/ml) was 60 min, the “Time of death (100% kill)” value (Chaos sp. [2]; 50 μg/ml, listed as beta resin) was “effective per se” and the “Time of death (100% kill)” value (Chaos sp. [2]; 100 μg/ml) was 30 min. The “Time of death (100% kill)” value (Chaos sp. [2]; 100 μg/ml, listed as beta resin) was “all were effective”, the “Time of death (100% kill)” value (Chaos sp. [2]; 200 μg/ml) was 30 min and the “Time of death (100% kill)” value (Chaos sp. [2]; 500 μg/ml) was 25 min. For the same compound, the “Time of death (100% kill), resin + CO2” value (P. caudatum [3]; resin 0.05 μg/ml) was 14 min, the “Time of death (100% kill), resin + CO2” value (P. caudatum [3]; resin 0.1 μg/ml) was 5 min and the “Time of death (100% kill)” value (T. pyriformis; 0.05 μg/ml) was “not sensitive”. For the same compound, the “Time of death (100% kill)” value (T. pyriformis; 0.2 μg/ml) was 15 min, the “Time of death (100% kill)” value (T. pyriformis; [5]) was ≤ 15 min and the “Time of death (100% kill)” value (T. pyriformis; 0.5 μg/ml) was 3 min. The “Time of death (100% kill)” value (T. pyriformis; [6]) was “five”, the “Time of death (100% kill)” value (T. pyriformis; 1.0 μg/ml) was 1.5 min and the “Time of death (100% kill)” value (T. pyriformis; 2.0 μg/ml) was 1.0 min. For the same compound, the “Time of death (100% kill)” value (T. pyriformis; 2.0 μg/ml, listed as beta resin) was “two”, the “Time of death (100% kill)” value (P. caudatum [4]; 0.05 μg/ml) was “not sensitive” and the “Time for death to occur” value (P. caudatum [4]; 0.1 ug/ml) was “one”. For the same compound, the “Time of death (100% kill)” value (P. caudatum [4]; 0.1 μg/ml) was 60 min, the “Time of death (100% kill)” value (P. caudatum [4]; 0.2 μg/ml) was 5 min and the “Time of death (100% kill)” value (P. caudatum [4]; [5]) was ≤ 5 min. For the same compound, the “Time of death (100% kill)” value (P. caudatum [4]; 0.5 μg/ml) was 3.5 min, the “Time of death (100% kill)” value (P. caudatum [4]; [6]) was “five” and the “Time of death (100% kill)” value (P. caudatum [4]; 1.0 μg/ml) was 3.0 min. The “Time of death (100% kill)” value (P. caudatum [4]; 2.0 μg/ml) was 2.0 min.

In the case of `O=C=O` [Carbon dioxide, carbon dioxide], the “Time of death with carbon dioxide, without addition of hop” value (P. caudatum [3]; no hop) is reported as “*Carbon dioxide had been bubbled into the medium for 30 seconds previous to inoculation and death without addition of hop occurred between 40-50 minutes”.

`COc1cc(O)c(CC=C(C)C)c(O)c1C(=O)/C=C/c1ccc(O)cc1` [Xanthohumol, xanthohumol] was tested, and the “Concentration effective in killing” value (Chaos sp. [2]) was ≥ 5 µg/mL, the “Time of death (100% kill)” value (Chaos sp. [2]; 5.0 μg/ml) was 15 min and the “Time of death (100% kill)” value (Chaos sp. [2]; 10 μg/ml) was 11 min. The “Time of death (100% kill)” value (P. caudatum [4]; 0.05 μg/ml) was 10 min, the “Time of death (100% kill)” value (P. caudatum [4]; 0.05 μg/ml, listed as xanthohumol) was “ten” and the “Time of death (100% kill)” value (P. caudatum [4]; 0.1 μg/ml) was 5 min. For the same compound, the “Time of death (100% kill)” value (P. caudatum [4]; 1.0 μg/ml) was 2.5 min.
